From patent US20250130239A1, “PROTEIN DEGRADER” (University of Dundee, priority 2021, published 2025)

Legend:
22RV1 cells = experiment: CellTiter-Glo cell viability assay, 22RV1; format: cell-based, human; details: up to 10 μM; 48 h
Method: Cell Viability Assay. MV-4-11 cells were plated at a density of 2×10^4 cell per well of a 96 well white-bottom plate, and left to grow overnight in 50 μl of IMDM (Invitrogen, arlsebad, CA, USA) supplemented with 10% (v/v) Fetal bovine serum (FBS) (Thermo Fisher, Waltham, MA, USA) and 1% (v/v) penicillin/streptomycin (pen/strep) (#15140122, Thermo Fisher, Waltham, MA, USA) at 37° C., 5% CO2, and 95% humidity. […] These cells were then left to incubate at 37° C., 5% CO2, and 95% humidity for one day prior to undergoing spectrophotometric analysis. 22RV1 cells were plated at a density of 2×10^4 cell per well of a 96 well white-bottom plate, and left to grow overnight in 100 μL of RPMI-1640 (Invitrogen, Carlsebad, CA, USA) supplemented with 10% (v/v) fetal bovine serum (FBS) (Thermo Fisher, Waltham, MA, USA) and 1% (v/v) penicillin/streptomycin (pen/strep) (#15140122, Thermo Fisher, Waltham, MA, USA) at 37° C., 5% CO2, and 95% humidity. […] Plates were subjected to 2 mins on an orbital shaker to encourage lysis and left for a further 5 mins to reach peak luminescence. Luminescence was then recorded on a BMG Labtech PHERAstar luminescence plate reader with recommended settings. Data extracted from this analysis was analysed with Graphpad Prism (v. 8.2.0, GraphPad) and normalized to the DMSO vehicle control. […]

HEK293 cells = experiment: CellTiter-Glo cell viability assay, HEK293; format: cell-based, human; details: up to 10 μM; 48 h
[1] = In vivo PK profiling of AGB1; parameters: species or system C57BL/6 male mice; details: SC (5 mg/kg), mice
Method: In Vivo PK Profiling. Pharmacokinetic profiling was outsourced and undertaken by Shanghai ChemPartner Co., Ltd. Six to eight-week-old, C57BL/6 male mice purchased from Jihui Laboratory Animal Co. LTD were used in the study. […] The animals were restrained manually at the designated time points (0.083, 0.25, 0.5, 1, 2, 4 and 8 h), approximately 110 μL of blood sample was collected via facial vein into K2EDTA tubes. Three mice per time point were used resulting in a total of […]. Blood sample was put on ice and centrifuged at 2000 g for 5 mins to obtain plasma sample within 15 min. Plasma samples were stored at approximately −70° C. until analysis. A 30 μL aliquot of plasma was added with 200 μL internal standard (Diclofenac, 40 ng/mL) in 1% formic acid in MeCN. The mixture was then vortexed for 1 min and then centrifuged for 10 min at 5800 rpm. 100 μL of supernatant was transferred to a new plate. 0.5 μL of solvent was injected to LC-MS/MS. LC-MS/MS instrument used: SCIEX LC-MS/MS-45 (Triple Quad 6500+). Data was analysed by WinNonLin and Microsoft Excel.

BromoTag-Brd2 = target: T1, BromoTag-Brd2 (Homo sapiens, UniProt O60885+P40337, L387A); experiment: Competition assay (inhibitor pre-treatment, then AGB1); format: cell-based; details: then 200 nM 46 for 3 h
T1 construct: comprising residues 368-440 of human Brd4; Brd2 (endogenous protein, fusion partner in the same polypeptide); eGFP-P2A (upstream marker in the knock-in cassette) (N, cleaved yes); expressed in transfected cells; host or cells: HEK293, heterozygous CRISPR knock-in at the endogenous BRD2 locus
Method: Competition Assay. Heterozygous BromoTag-Brd2 HEK293 cells were plated in six-well plates at a density of 5×10^5 cells per well in 2 mL DMEM media. […] After 1 h, 200 nM of AGB1 was added to the previously compound treated cells. After a following 3 h the cells were harvested for subsequent processing via western blot. Each treatment was performed in tandem to produce two technical repeats per condition. The 6 well plates were incubated for 4 h at 37° C. and 5% CO2 throughout the experiment.
Western Blotting. All cells were harvested on ice with RIPA lysis, and extraction buffer (ThermoFisher Scientific, 89901) supplemented with protease inhibitor cocktail (Merck, 11697498001) and Benzonase® Nuclease (Sigma, E1014) before being store at −20° C. prior to use. Total protein quantity was determined using the BCA protein assay (#23225, Pierce, Rockford, Illinois). Protein concentration was determined using the BCA assay (ThermoFisher Scientific, 23225). Samples were then prepared and loaded onto NuPAGE™ 4-12% Bis-Tris Midi gels (ThermoFisher Scientific, WG1403A), followed by the transfer of the proteins onto nitrocellulose membranes (EMD Millipore). The membranes were blocked for 1 h prior to incubation with the primary antibodies using 5% Milk TBST. Membranes were probed for Brd2 (Abcam, Ab139690, 1:1000), Brd3 (Abcam, Ab50818, 1:4000), Brd4 (Abcam, Ab128874, 1:1000) or our polyclonal Brd4^BD2 L387A antibody. Following overnight incubation with the primary antibodies at 4° C., the membranes were incubated with secondary antibodies (Anti-rabbit, Abcam AB216773, 1:5000 or anti-mouse, Abcam AB216774, 1:5000) and hFAB™ Rhodamine Anti-Tubulin Antibody (Biorad, 12004165, 1:10000) for one h and then imaged with a Bio-Rad imager (LI-COR Biosciences). All western blots were analysed for band intensities using Image Lab from Bio-Rad (LI-COR, Biosciences). The data extracted from these blots were then plotted and analysed using Prism (v. 8.2.0, GraphPad).

T1 sequence (P40337 whole entry, other chains not shown, the tested form may be a part): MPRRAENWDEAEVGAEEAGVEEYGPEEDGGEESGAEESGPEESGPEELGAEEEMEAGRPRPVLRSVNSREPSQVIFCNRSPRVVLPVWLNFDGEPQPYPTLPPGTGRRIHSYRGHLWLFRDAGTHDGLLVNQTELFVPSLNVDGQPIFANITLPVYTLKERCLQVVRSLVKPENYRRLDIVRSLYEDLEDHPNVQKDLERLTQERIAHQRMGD

Compound: CC[C@@H](C(=O)OCCOCCOCCOCC(=O)N[C@H](C(=O)N1C[C@H](O)C[C@H]1C(=O)NCc1ccc(-c2scnc2C)cc1)C(C)(C)C)[C@@H]1N=C(c2ccc(Cl)cc2)c2c(sc(C)c2C)-n2c(C)nnc21 (single isomer, unassigned) [AGB1 (46)]
- cytotoxicity (22RV1 cells): lack of cytotoxicity
- cytotoxicity (HEK293 cells): lack of cytotoxicity
- F (%) [1]: 140%
- on-target degradation activity after pre-treatment with MLN4924 (BromoTag-Brd2; 3 μM MLN4924 1 h): completely abrogated
- on-target degradation activity after pre-treatment with ET-JQ1-OMe (BromoTag-Brd2; 10 μM ET-JQ1-OMe 1 h): A similar outcome
- on-target degradation activity after pre-treatment with VH298 (BromoTag-Brd2; 10 μM VH298 1 h): completely abrogated
- on-target degradation activity after pre-treatment with MG132 (BromoTag-Brd2; 50 μM MG132 1 h): blocked
